In test [1] the target is Phospho-KIT (Tyr719) in GIST48 cells (Homo sapiens, UniProt P10721). In words: GIST48 KIT Western Blot. It is filed as cell-based. The following applies: 4 hours, read-out: pKIT suppression by western blot analysi GIST48. (In general: In western blotting, separated proteins are transferred to a membrane and probed.)
Test [2] deals with Phospho-KIT (Tyr719) in GIST430 cells (Homo sapiens, UniProt P10721). In words: GIST430 KIT Western Blot. It is filed as cell-based. The following applies: 4 hours, read-out: pKIT suppression by western blot analysi GIST430.
Phospho-KIT (Tyr719) in GIST430 cells, sequence (P10721 with tags, fused parts or gaps DEL560-576/V654A, form open): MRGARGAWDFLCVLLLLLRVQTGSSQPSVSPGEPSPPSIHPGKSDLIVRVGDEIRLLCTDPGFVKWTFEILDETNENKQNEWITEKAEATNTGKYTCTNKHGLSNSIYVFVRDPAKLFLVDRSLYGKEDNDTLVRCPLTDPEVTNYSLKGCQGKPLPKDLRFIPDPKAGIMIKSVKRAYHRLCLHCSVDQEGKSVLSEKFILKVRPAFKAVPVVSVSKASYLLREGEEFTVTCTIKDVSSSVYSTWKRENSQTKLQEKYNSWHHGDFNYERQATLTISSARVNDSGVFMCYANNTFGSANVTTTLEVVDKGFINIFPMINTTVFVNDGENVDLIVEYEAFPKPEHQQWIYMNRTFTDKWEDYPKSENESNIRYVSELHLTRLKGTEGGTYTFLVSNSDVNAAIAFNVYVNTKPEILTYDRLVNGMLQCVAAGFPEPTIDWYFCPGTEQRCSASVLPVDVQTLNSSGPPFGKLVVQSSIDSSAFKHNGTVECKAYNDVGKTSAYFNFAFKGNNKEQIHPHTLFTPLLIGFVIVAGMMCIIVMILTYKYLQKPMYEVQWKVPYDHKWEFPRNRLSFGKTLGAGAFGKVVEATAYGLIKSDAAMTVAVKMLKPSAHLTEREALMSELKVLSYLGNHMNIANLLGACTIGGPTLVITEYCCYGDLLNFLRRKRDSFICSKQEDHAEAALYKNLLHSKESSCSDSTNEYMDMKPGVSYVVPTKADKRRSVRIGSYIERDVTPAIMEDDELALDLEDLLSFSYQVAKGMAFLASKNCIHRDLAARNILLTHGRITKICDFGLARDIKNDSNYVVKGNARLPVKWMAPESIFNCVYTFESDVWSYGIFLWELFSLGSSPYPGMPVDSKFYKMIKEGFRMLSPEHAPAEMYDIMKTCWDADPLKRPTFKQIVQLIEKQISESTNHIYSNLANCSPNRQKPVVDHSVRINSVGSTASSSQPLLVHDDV
For test [3], the system named is GIST430 cells. In words: GIST 430 Cell Proliferation Assay. In kind it is cell-based. The following applies: Homo sapiens, resazurin, 115 hours + 5 hours. On the procedure: (§1) GIST48, GIST430, and GIST882 cells were obtained from J. Fletcher (Brigham and Women's Hospital, Boston, Mass.). GIST T1 cells were obtained from B. Rubin (Cleveland Clinic, Cleveland, Ohio) and Professor Takahiro Taguchi (Kochi Medical School, Nankoku, Kochi, Japan). Briefly, GIST48 and GIST 882 cells were grown in RPMI 1640 medium supplemented with 15% characterized fetal bovine serum (Invitrogen, Carlsbad, Calif.), 1 unit/mL penicillin G, 1 μg/ml streptomycin, and 0.29 mg/mL L-glutamine at 37° C., 5% CO2, and 95% humidity. GIST430 cells were grown in Ham's F10 medium supplemented with 15% characterized fetal bovine serum (Invitrogen, Carlsbad, Calif.), 30 mg/L bovine pituitary extract (BD Biosciences, San Jose, Calif.), 0.5% Mito+ serum extender (BD Biosciences, San Jose, Calif.), 1 unit/mL penicillin G, 1 μg/ml streptomycin, and 0.29 mg/mL L-glutamine at 37° C., 5% CO2, 95% humidity. GIST T1 cells were grown in DMEM medium supplemented with 10% characterized fetal bovine serum (Invitrogen, Carlsbad, Calif.), 1 unit/mL penicillin G, 1 ng/ml streptomycin, and 0.29 mg/mL L-glutamine at 37° C., 5% CO2, and 95% humidity.
A serial dilution of test compound was dispensed into a 384-well black clear bottom plate (Corning, Corning, N.Y.). Two thousand five-hundred cells were added per well in 50 μL complete growth medium. Plates were incubated for 115 hours at 37° C., 5% CO2, 95% humidity. At the end of the incubation period 10 μL of a 440 μM solution of resazurin (Sigma, St. Louis, Mo.) in PBS was added to each well and incubated for an additional 5 hours at 37° C., 5% CO2, 95% humidity. Plates were read on a Synergy2 reader (Biotek, Winooski, Vt.) using an excitation of 540 nm and an emission of 600 nm.
(In general: Alamar Blue is a resazurin reagent that responds to reducing activity.)

For test [4], the target named is T1, c-KIT kinase (Seq ID no. 1) (Homo sapiens, UniProt P10721).
T1 construct: GST (N); TEV cleavage site (N); purchased deCODE Biostructures
T1 sequence (P10721 with tags, fused parts or gaps): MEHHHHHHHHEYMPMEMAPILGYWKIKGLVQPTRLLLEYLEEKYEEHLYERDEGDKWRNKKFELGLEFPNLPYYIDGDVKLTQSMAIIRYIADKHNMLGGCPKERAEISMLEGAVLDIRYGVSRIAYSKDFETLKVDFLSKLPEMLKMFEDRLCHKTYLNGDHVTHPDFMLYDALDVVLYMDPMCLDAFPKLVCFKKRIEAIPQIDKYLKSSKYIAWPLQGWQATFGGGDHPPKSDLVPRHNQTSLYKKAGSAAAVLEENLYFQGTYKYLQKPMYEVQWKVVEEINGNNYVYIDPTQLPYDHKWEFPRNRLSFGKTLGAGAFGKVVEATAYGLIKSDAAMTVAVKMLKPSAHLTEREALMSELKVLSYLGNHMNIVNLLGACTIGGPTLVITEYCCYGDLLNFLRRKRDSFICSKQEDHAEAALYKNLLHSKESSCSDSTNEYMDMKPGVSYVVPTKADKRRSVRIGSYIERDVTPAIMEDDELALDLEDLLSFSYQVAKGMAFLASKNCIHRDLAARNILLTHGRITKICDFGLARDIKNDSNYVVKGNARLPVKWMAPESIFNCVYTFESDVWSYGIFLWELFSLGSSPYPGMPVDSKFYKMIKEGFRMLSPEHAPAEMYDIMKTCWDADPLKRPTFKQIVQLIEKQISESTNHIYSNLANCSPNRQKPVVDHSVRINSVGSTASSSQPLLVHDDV
In words: c-KIT Kinase Assay (pyruvate kinase/lactate dehydrogenase coupled). The following applies: enzymatic assay, ATP 200 μM; read-out: KIT (wt). It is filed as biochemical. Here is the method:
In this assay, the oxidation of NADH (measured by decrease in absorbance at 340 nm) was continuously monitored spectrophotometrically. […] The absorption at 340 nm was monitored continuously for 2 hours at 30° C. on Synergy 2 (BioTeK). The reaction rate was calculated using the 0 to 1 h time frame. Percent inhibition was obtained by comparison of reaction rate with that of a control (i.e. with no test compound). IC50 values were calculated from a series of percent inhibition values determined at a range of inhibitor concentrations using software routines as implemented in the GraphPad Prism software package. The protein construct was prepared by deCODE Biostructures using procedures known in the art. The construct contains […] of cKit, an N-terminal tag, a GST-fusion sequence and a TEV cleavage site.

The target of test [5] is T2, c-KIT V654A kinase (Seq ID no. 2) (Homo sapiens, UniProt P10721, V654A).
T2 construct: V654A c-Kit (residues T544-V976 with N-terminal GST fusion, 47 nM); purchased deCODE Biostructures
T2 sequence (P10721 544-976 V654A): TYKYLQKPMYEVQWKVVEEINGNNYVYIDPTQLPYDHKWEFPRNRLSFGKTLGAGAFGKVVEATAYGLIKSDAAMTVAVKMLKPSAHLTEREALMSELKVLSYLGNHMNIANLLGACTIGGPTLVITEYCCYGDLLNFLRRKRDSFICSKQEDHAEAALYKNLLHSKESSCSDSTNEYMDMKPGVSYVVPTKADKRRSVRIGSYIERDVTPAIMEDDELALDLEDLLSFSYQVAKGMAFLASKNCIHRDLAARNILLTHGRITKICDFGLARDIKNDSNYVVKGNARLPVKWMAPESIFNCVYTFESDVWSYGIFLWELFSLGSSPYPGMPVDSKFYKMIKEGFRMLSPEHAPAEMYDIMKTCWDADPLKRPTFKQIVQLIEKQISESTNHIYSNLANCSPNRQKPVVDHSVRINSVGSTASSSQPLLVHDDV
The test is described as follows: c-KIT V654A Kinase Assay. It is filed as biochemical. The following applies: enzymatic assay, ATP 200 μM. On the procedure: In this assay, the oxidation of NADH (measured by decrease in absorbance at 340 nm) was continuously monitored spectrophotometrically. […] The inhibition reaction was started by mixing serial diluted test compound with the above reaction mixture. The absorption at 340 nm was monitored continuously for 6 hours at 30° C. on Synergy 2 plate reader (BioTech).
The protein construct was prepared by deCODE Biostructures using procedures known in the art. The construct contains residues T544-V976 of cKit, an N-terminal tag, a GST-fusion sequence and a TEV cleavage site. This construct is identical to Seq ID no.

Test [6] deals with GIST T1 cells. In words: GIST T1 Cell Proliferation Assay. The following applies: Homo sapiens, GISTT1, 72 h, resazurin, 68 hours + 4 hours. It is filed as cell-based. Here is the method:
as §1
A serial dilution of test compound was dispensed into a 384-well black clear bottom plate (Corning, Corning, N.Y.). […] Plates were read on a Synergy2 reader (Biotek, Winooski, Vt.) using an excitation of 540 nm and an emission of 600 nm.

Test [7] deals with T3, c-KIT D816V kinase (Seq ID no. 4) (Homo sapiens, UniProt P10721, D816V).
T3 construct: D816V c-KIT (residues T544-V976 with N-terminal GST fusion, 16 nM); purchased deCODE Biostructures
T3 sequence (P10721 544-976 D816V): as the sequence (P10721 544-976 V654A) above, with A111V, D273V counted along it
In words: c-KIT D816V kinase Assay. The following applies: enzymatic assay, ATP 200 uM. It is filed as biochemical. On the procedure:
In this assay, the oxidation of NADH (measured by decrease in absorbance at 340 nm) was continuously monitored spectrophotometrically. […] The inhibition reaction was started by mixing serial diluted test compound with the above reaction mixture. The absorption at 340 nm was monitored continuously for 5 hours at 30° C. on Synergy 2 plate reader (BioTech).
The protein construct was prepared by deCODE Biostructures using procedures known in the art. The construct contains residues T544-V976 of cKit, an N-terminal tag, a GST-fusion sequence and a TEV cleavage site. This construct is identical to Seq ID no. 1 except for the D816V mutation.

The target of test [8] is T4, c-KIT D816H kinase (Seq ID no. 3) (Homo sapiens, UniProt P10721, D816H).
T4 construct: GST (N); TEV cleavage site (N); purchased deCODE Biostructures
T4 sequence (P10721 544-976 D816H): as the sequence (P10721 544-976 V654A) above, with A111V, D273H counted along it
The test is described as follows: c-KIT D816H Kinase Assay. The following applies: enzymatic assay, ATP 200 μM. In kind it is biochemical. Here is the method: In this assay, the oxidation of NADH (measured by decrease in absorbance at 340 nm) was continuously monitored spectrophotometrically. […] The inhibition reaction was started by mixing serial diluted test compound with the above reaction mixture. The absorption at 340 nm was monitored continuously for 6 hours at 30° C. on Synergy 2 plate reader (BioTech). […] The protein construct was prepared by deCODE Biostructures using procedures known in the art. The construct contains […] of cKit, an N-terminal tag, a GST-fusion sequence and a TEV cleavage site. This construct is identical to Seq ID no. 1 except for the D816H mutation.

For test [9], the target named is T5, c-KIT T670I kinase (Seq ID no. 6) (Homo sapiens, UniProt P10721, T670I).
T5 construct: GST (N); TEV cleavage site (N); purchased deCODE Biostructures
T5 sequence (P10721 544-976 T670I): as the sequence (P10721 544-976 V654A) above, with A111V, T127I counted along it
The test is described as follows: c-KIT T670I Kinase Assay. The following applies: enzymatic assay, ATP 200 uM. It is filed as biochemical. Here is the method: In this assay, the oxidation of NADH (measured by decrease in absorbance at 340 nm) was continuously monitored spectrophotometrically. […] The inhibition reaction was started by mixing serial diluted test compound with the above reaction mixture. The absorption at 340 nm was monitored continuously for 5 hours at 30° C. on Synergy 2 plate reader (BioTech). […] The protein construct was prepared by deCODE Biostructures using procedures known in the art. The construct contains […] of cKit, an N-terminal tag, a GST-fusion sequence and a TEV cleavage site. This construct is identical to Seq ID no.

We go through four compounds from patent US8940756B2, “Dihydronaphthyridines and related compounds useful as kinase inhibitors for the treatment of proliferative diseases” (Deciphera Pharmaceuticals, Inc., priority 2012, dated 2015).

Where only a bound is given, the exact number is not on record here.

Phospho-KIT (Tyr719) in GIST48 cells, sequence (P10721 whole entry V560D/D820A, form open): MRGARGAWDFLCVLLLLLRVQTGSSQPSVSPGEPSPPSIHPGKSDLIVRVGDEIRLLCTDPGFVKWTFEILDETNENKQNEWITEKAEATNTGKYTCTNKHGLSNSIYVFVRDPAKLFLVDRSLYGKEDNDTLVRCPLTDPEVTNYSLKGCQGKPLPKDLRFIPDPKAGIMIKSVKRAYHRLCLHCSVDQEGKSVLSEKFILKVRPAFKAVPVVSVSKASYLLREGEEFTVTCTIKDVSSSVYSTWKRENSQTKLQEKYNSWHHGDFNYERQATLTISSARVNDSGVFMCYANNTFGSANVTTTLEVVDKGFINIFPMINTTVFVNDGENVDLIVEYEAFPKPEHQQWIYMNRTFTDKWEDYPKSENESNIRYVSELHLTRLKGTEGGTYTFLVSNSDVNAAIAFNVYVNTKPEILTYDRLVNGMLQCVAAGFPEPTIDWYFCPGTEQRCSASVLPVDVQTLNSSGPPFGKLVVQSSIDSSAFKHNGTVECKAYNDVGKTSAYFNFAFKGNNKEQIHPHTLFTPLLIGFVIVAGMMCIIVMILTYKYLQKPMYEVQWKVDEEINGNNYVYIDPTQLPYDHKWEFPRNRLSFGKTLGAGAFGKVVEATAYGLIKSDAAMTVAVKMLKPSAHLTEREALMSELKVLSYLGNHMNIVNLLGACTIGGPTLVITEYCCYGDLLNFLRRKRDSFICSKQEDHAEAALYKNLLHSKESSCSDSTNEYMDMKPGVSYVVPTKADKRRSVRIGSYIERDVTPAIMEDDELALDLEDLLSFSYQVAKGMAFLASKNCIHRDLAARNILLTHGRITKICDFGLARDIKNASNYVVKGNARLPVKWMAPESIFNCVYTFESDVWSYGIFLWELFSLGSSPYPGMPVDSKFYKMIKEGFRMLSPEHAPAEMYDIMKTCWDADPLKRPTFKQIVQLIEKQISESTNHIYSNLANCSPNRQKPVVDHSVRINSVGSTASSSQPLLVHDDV

Regarding `CCn1c(=O)c(-c2cc(NC(=O)Nc3ccccc3F)c(F)cc2C)cc2cnc(NC)cc21` [Example 38, 1-(5-(1-ethyl-7-(methylamino)-2-oxo-1,2-dihydro-1,6-naphthyridin-3-yl)-2-fluoro-4-methylphenyl)-3-(2-fluorophenyl)urea], the IC50 in [1] is greater than 1000 nM; in [2] it was 10 to 100 nM; in test [3], 10 to 100 nM.
For `CCn1c(=O)c(-c2cc(NC(=O)Nc3ccccc3)c(F)cc2Cl)cc2cnc(NCCCN3CCOCC3)cc21` [Example 92, 1-(4-chloro-5-(1-ethyl-7-((3-morpholinopropyl)amino)-2-oxo-1,2-dihydro-1,6-naphthyridin-3-yl)-2-fluorophenyl)-3-phenylurea], the IC50 was less than 10 nM in [4]; less than 10 nM in [5]; no more than 10 nM in test [6]; 10 to 100 nM in test [7]; 10 to 100 nM in test [8]; 10 to 100 nM in [9].
For the compound `CCn1c(=O)c(-c2cc(NC(=O)Nc3ccccc3)c(F)cc2C)cc2cnc(NC)cc21` [Example 23, 1-(5-(1-ethyl-7-(methylamino)-2-oxo-1,2-dihydro-1,6-naphthyridin-3-yl)-2-fluoro-4-methylphenyl)-3-phenylurea], the results for the IC50 in test [1], in [2] and in test [3] were 100 to 1000 nM, 10 to 100 nM and 10 to 100 nM, respectively.
With `CCn1c(=O)c(-c2cc(NC(=O)Nc3ccccc3)c(F)cc2Cl)cc2cnc(NC)cc21` [Example 3, 1-(4-chloro-5-(1-ethyl-7-(methylamino)-2-oxo-1,2-dihydro-1,6-naphthyridin-3-yl)-2-fluorophenyl)-3-phenylurea], the figures for the IC50 in test [1], in test [2] and in test [3] were 100 to 1000 nM, 10 to 100 nM and 10 to 100 nM, respectively.
